A short description of data set [1]: Solid stability test (long-term and accelerated lofting). In kind it is physicochemical. The source says:
Each sample was separately put into a double-layer LDPE bag with each layer of LDPE bag sealed by a binding buckle. The bag was then put into an aluminum foil bag for heat sealing, and then put into a stability box under corresponding conditions for observation.

Data set [2] can be described thus: Hygroscopicity by dynamic vapor sorption (DVS). In kind it is physicochemical. The source says:
SMS DVS intrinsic dynamic vapor sorption instrument

In data set [3] the target is T1, MNK2 (h) protein kinase (Homo sapiens, UniProt Q9HBH9).
T1 construct: purchased Eurofins Pharma Discovery Services UK Limited (KinaseProfiler service)
In words: Inhibitory activity against MNK2 protein kinase (KinaseProfiler, 33P-ATP filter-binding). As to conditions: myelin basic protein substrate, 40 min at room temperature. The data set is classed as biochemical. The method, then:
Purpose of experiment: to test the inhibitory activity of the compound against MNK2 protein kinase Experimental materials: assay buffer: 8 mM 3-(N-morpholino)propanesulfonic acid, 0.2 mM disodium ethylenediaminetetraacetate, 0.01% polyoxyethylene lauryl ether, 5% glycerol, 0.1% β-mercaptoethanol and 1 mg of bovine serum albumin
Experimental operation: Mnk2 protein kinase inhibitory activity assays were performed using the KinaseProfiler™ service from Eurofins Pharma Discovery Services UK Limited. Serially diluted DMSO solutions containing the compound to be tested (3-fold serial dilution, starting from 10 μM), MNK2 (h) protein kinase and 0.33 mg/mL myelin basic protein were added to a freshly prepared buffer (pH=7.0), and then stirred homogeneously. The reaction was initiated by adding a mixture of ^33P-ATP (intensity of radioactivity: 10 μCi/μL) and 10 mM magnesium acetate. After the resulting mixture was reacted at room temperature for 40 min, the reaction was terminated by adding phosphoric acid to dilute to a concentration of 0.5%. […] After drying, the intensity of radioactivity was determined using the Filter-Binding method.
The protein kinase inhibitory activity of the compound was expressed as a percentage of the residual protein kinase activity relative to the blank substrate (DMSO alone). […]

The nature of data set [4]: Crystal form screening / stability in different solvents. The data set is classed as physicochemical. As to conditions: stirred at 50° C. for 3 h, XRPD. The method, then: About 50 mg of the compound of formula (II) was weighed out separately and dissolved in different solvents, the mixtures were stirred at 50° C. for 3 h. The reaction liquids were cooled to room temperature, filtered for collection, and dried in vacuum, and the obtained solids were tested by XRPD.

SMILES strings stand for the structures.

T1 sequence (Q9HBH9 whole entry): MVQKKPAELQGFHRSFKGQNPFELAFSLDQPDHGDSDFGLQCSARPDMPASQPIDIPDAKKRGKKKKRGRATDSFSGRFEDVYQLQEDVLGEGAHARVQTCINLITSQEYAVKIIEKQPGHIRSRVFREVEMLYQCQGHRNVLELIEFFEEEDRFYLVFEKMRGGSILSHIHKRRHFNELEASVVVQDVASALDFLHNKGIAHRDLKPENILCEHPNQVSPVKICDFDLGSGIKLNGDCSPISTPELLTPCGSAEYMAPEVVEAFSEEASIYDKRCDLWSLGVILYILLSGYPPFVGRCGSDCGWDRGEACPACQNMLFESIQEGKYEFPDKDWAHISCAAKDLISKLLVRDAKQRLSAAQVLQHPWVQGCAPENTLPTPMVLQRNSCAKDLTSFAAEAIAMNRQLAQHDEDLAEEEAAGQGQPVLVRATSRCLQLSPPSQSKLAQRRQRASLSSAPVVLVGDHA

As to `Cc1cc(Nc2ncnn3cc(OCCN4CCC(F)(F)C4)c(C)c23)c(=O)n2c1C(=O)NC21CCCC1`, the Crystal form result in data set [1] (25° C./60% RH, 12 months) is “Crystal form A”; in data set [1] (25° C./60% RH, Day 0), “Crystal form A”; in data set [1] (40° C./75% RH, 6 months) it was “Crystal form A”; in data set [1] (40° C./75% RH, Day 0), “Crystal form A”. For the same compound, in data set [2] (25° C. and 80% RH, DVS), the “hygroscopic weight gain ΔW” value turned out to be 1.179%. The “hygroscopicity (in words)” value in data set [2] (25° C. and 80% RH, DVS) is “relatively weak hygroscopicity”. Moreover, the “crystal form before and after the hygroscopic test” value in data set [2] (DVS 0%~95%~0% RH, 25° C.) is “not changed”.
By IC50 is commonly meant the concentration that gives 50% inhibition. The compound `Cc1cc(Nc2ncnn3cc(OCCN4CCC(F)(F)C4)c(C)c23)c(=O)n2c1C(=O)NC21CCCC1` [Compound of formula (I)] showed a half-inhibitory concentration (IC50) in data set [3] of 17 nM. In other words, the double-digit nanomolar range.
Consider `Cc1cc(Nc2ncnn3cc(OCCN4CCC(F)(F)C4)c(C)c23)c(=O)n2c1C(=O)NC21CCCC1` [compound of formula (II)], for which the Crystal form result was “Crystal form A” in data set [4] (Acetonitrile); “Crystal form B” in data set [4] (Ethanol); “Crystal form A” in data set [4] (Methanol); “Crystal form B” in data set [4] (n-Heptane); “Crystal form A” in data set [4] (tert-Butyl methyl ether).
